Experimental data as given in PubChem BioAssay (NCI).
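Values below derive from 48-hour exposures of cells grown in 96-well plates, with endpoints linearly interpolated between the two concentrations bracketing the appropriate inhibition level. Definition used: TGI = concentration required for complete inhibition of growth.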

How the values were obtained:
Test in all cases: growth of human tumour cells (NCI), 48 h
SK-OV-3 ovarian = test system: SK-OV-3 ovarian
SK-MEL-28 melanoma = test system: SK-MEL-28 melanoma
U251 CNS = test system: U251 CNS
DMS 273 small cell lung = test system: DMS 273 small cell lung
DLD-1 colon = test system: DLD-1 colon
K-562 leukemia = test system: K-562 leukemia
OVCAR-4 ovarian = test system: OVCAR-4 ovarian
M14 melanoma = test system: M14 melanoma
HT29 colon = test system: HT29 colon
ACHN renal = test system: ACHN renal
OVCAR-3 ovarian = test system: OVCAR-3 ovarian
SF-295 CNS = test system: SF-295 CNS
KM12 colon = test system: KM12 colon
SF-268 CNS = test system: SF-268 CNS
UO-31 renal = test system: UO-31 renal
HL-60(TB) leukemia = test system: HL-60(TB) leukemia
SNB-19 CNS = test system: SNB-19 CNS
NCI-H460 lung = test system: NCI-H460 lung
UACC-62 melanoma = test system: UACC-62 melanoma
DMS 114 small cell lung = test system: DMS 114 small cell lung
IGROV1 ovarian = test system: IGROV1 ovarian
RPMI-8226 leukemia = test system: RPMI-8226 leukemia
SW-620 colon = test system: SW-620 colon
NCI-H226 lung = test system: NCI-H226 lung
SNB-78 CNS = test system: SNB-78 CNS
RXF 393 renal = test system: RXF 393 renal
CCRF-CEM leukemia = test system: CCRF-CEM leukemia
OVCAR-5 ovarian = test system: OVCAR-5 ovarian
SR leukemia = test system: SR leukemia
HOP-18 NSCLC = test system: HOP-18 NSCLC
A549 NSCLC = test system: A549 NSCLC
RXF-631 renal = test system: RXF-631 renal
SK-MEL-5 melanoma = test system: SK-MEL-5 melanoma
LOX IMVI melanoma = test system: LOX IMVI melanoma
TK-10 renal = test system: TK-10 renal
EKVX NSCLC = test system: EKVX NSCLC
SF-539 CNS = test system: SF-539 CNS
OVCAR-8 ovarian = test system: OVCAR-8 ovarian
SNB-75 CNS = test system: SNB-75 CNS
MOLT-4 leukemia = test system: MOLT-4 leukemia
M19-MEL melanoma = test system: M19-MEL melanoma
786-0 renal = test system: 786-0 renal
NCI-H23 lung = test system: NCI-H23 lung
LXFL 529 NSCLC = test system: LXFL 529 NSCLC
COLO 205 colon = test system: COLO 205 colon
MALME-3M melanoma = test system: MALME-3M melanoma
KM20L2 colon = test system: KM20L2 colon
HCT-116 colon = test system: HCT-116 colon
UACC-257 melanoma = test system: UACC-257 melanoma
HOP-92 NSCLC = test system: HOP-92 NSCLC
HCT-15 colon = test system: HCT-15 colon
NCI-H522 lung = test system: NCI-H522 lung
HOP-62 NSCLC = test system: HOP-62 NSCLC
SN12C renal = test system: SN12C renal
CAKI-1 renal = test system: CAKI-1 renal
SK-MEL-2 melanoma = test system: SK-MEL-2 melanoma
A498 renal = test system: A498 renal
HCC-2998 colon = test system: HCC-2998 colon

## O=C1C(c2ccc([N+](=O)[O-])cc2)=[N+]([O-])c2ccc([N+](=O)[O-])cc21
SK-OV-3 ovarian
  TGI: 83.2 µM
SK-MEL-28 melanoma
  TGI: > 100 µM
U251 CNS
  TGI: > 100 µM
DMS 273 small cell lung
  TGI: > 100 µM
DLD-1 colon
  TGI: > 100 µM
K-562 leukemia
  TGI: > 100 µM
OVCAR-4 ovarian
  TGI: > 100 µM
M14 melanoma
  TGI: > 100 µM
HT29 colon
  TGI: > 100 µM
ACHN renal
  TGI: > 100 µM
OVCAR-3 ovarian
  TGI: 55.8 µM
SF-295 CNS
  TGI: > 100 µM
KM12 colon
  TGI: > 100 µM
SF-268 CNS
  TGI: > 100 µM
UO-31 renal
  TGI: > 100 µM
HL-60(TB) leukemia
  TGI: 43.7 µM
SNB-19 CNS
  TGI: > 100 µM
NCI-H460 lung
  TGI: > 100 µM
UACC-62 melanoma
  TGI: 47.5 µM
DMS 114 small cell lung
  TGI: > 100 µM
IGROV1 ovarian
  TGI: 76.9 µM
RPMI-8226 leukemia
  TGI: > 100 µM
SW-620 colon
  TGI: > 100 µM
NCI-H226 lung
  TGI: > 100 µM
SNB-78 CNS
  TGI: > 100 µM
RXF 393 renal
  TGI: > 100 µM
CCRF-CEM leukemia
  TGI: 74.1 µM
OVCAR-5 ovarian
  TGI: > 100 µM
SR leukemia
  TGI: > 100 µM
HOP-18 NSCLC
  TGI: > 100 µM
A549 NSCLC
  TGI: > 100 µM
RXF-631 renal
  TGI: > 100 µM
SK-MEL-5 melanoma
  TGI: > 100 µM
LOX IMVI melanoma
  TGI: > 100 µM
TK-10 renal
  TGI: > 100 µM
EKVX NSCLC
  TGI: > 100 µM
SF-539 CNS
  TGI: > 100 µM
OVCAR-8 ovarian
  TGI: > 100 µM
SNB-75 CNS
  TGI: > 100 µM
MOLT-4 leukemia
  TGI: > 100 µM
M19-MEL melanoma
  TGI: 88.2 µM
786-0 renal
  TGI: > 100 µM
NCI-H23 lung
  TGI: > 100 µM
LXFL 529 NSCLC
  TGI: > 100 µM
COLO 205 colon
  TGI: > 100 µM

## Cc1nc(N)nc(N)c1CCCCc1ccccc1
MALME-3M melanoma
  TGI: 26.5 µM
SK-OV-3 ovarian
  TGI: > 100 µM
KM20L2 colon
  TGI: 63.3 µM
HCT-116 colon
  TGI: > 100 µM
U251 CNS
  TGI: 51.4 µM
DMS 273 small cell lung
  TGI: 20.5 µM
UACC-257 melanoma
  TGI: 28.6 µM
DLD-1 colon
  TGI: > 100 µM
K-562 leukemia
  TGI: 18.1 µM
HOP-92 NSCLC
  TGI: 54.6 µM
OVCAR-4 ovarian
  TGI: > 100 µM
HCT-15 colon
  TGI: 63.3 µM
M14 melanoma
  TGI: 19.7 µM
HT29 colon
  TGI: 16.9 µM
ACHN renal
  TGI: > 100 µM
OVCAR-3 ovarian
  TGI: 99.4 µM
SF-295 CNS
  TGI: > 100 µM
KM12 colon
  TGI: > 100 µM
SF-268 CNS
  TGI: 45.7 µM
UO-31 renal
  TGI: > 100 µM
NCI-H522 lung
  TGI: 31.6 µM
HL-60(TB) leukemia
  TGI: 20 µM
SNB-19 CNS
  TGI: > 100 µM
NCI-H460 lung
  TGI: 81.4 µM
UACC-62 melanoma
  TGI: 76.8 µM
DMS 114 small cell lung
  TGI: 24.1 µM
IGROV1 ovarian
  TGI: > 100 µM
RPMI-8226 leukemia
  TGI: 45.8 µM
SW-620 colon
  TGI: > 100 µM
SNB-78 CNS
  TGI: > 100 µM
RXF 393 renal
  TGI: 49.8 µM
CCRF-CEM leukemia
  TGI: 24.8 µM
OVCAR-5 ovarian
  TGI: > 100 µM
SR leukemia
  TGI: 38.4 µM
HOP-18 NSCLC
  TGI: > 100 µM
A549 NSCLC
  TGI: > 100 µM
HOP-62 NSCLC
  TGI: 56.4 µM
RXF-631 renal
  TGI: 39.1 µM
SK-MEL-5 melanoma
  TGI: 17.1 µM
LOX IMVI melanoma
  TGI: 23.9 µM
TK-10 renal
  TGI: 88.7 µM
SN12C renal
  TGI: > 100 µM
CAKI-1 renal
  TGI: > 100 µM
EKVX NSCLC
  TGI: > 100 µM
SF-539 CNS
  TGI: 36 µM
OVCAR-8 ovarian
  TGI: > 100 µM
SNB-75 CNS
  TGI: > 100 µM
MOLT-4 leukemia
  TGI: 63.5 µM
SK-MEL-2 melanoma
  TGI: 40.9 µM
M19-MEL melanoma
  TGI: 30.6 µM
A498 renal
  TGI: > 100 µM
786-0 renal
  TGI: 19 µM
NCI-H23 lung
  TGI: 20.6 µM
LXFL 529 NSCLC
  TGI: 73.8 µM
COLO 205 colon
  TGI: 21 µM
HCC-2998 colon
  TGI: 22.7 µM

## CN(C)C(=S)OC(Cn1cncn1)c1ccc(Cl)cc1Cl (stereo unspecified)
MALME-3M melanoma
  TGI: > 100 µM
SK-OV-3 ovarian
  TGI: > 100 µM
SK-MEL-28 melanoma
  TGI: > 100 µM
KM20L2 colon
  TGI: > 100 µM
HCT-116 colon
  TGI: > 100 µM
U251 CNS
  TGI: > 100 µM
DMS 273 small cell lung
  TGI: > 100 µM
UACC-257 melanoma
  TGI: > 100 µM
DLD-1 colon
  TGI: > 100 µM
K-562 leukemia
  TGI: > 100 µM
HOP-92 NSCLC
  TGI: > 100 µM
OVCAR-4 ovarian
  TGI: > 100 µM
HCT-15 colon
  TGI: > 100 µM
M14 melanoma
  TGI: > 100 µM
HT29 colon
  TGI: > 100 µM
ACHN renal
  TGI: > 100 µM
OVCAR-3 ovarian
  TGI: > 100 µM
SF-295 CNS
  TGI: > 100 µM
KM12 colon
  TGI: > 100 µM
SF-268 CNS
  TGI: > 100 µM
UO-31 renal
  TGI: > 100 µM
NCI-H522 lung
  TGI: > 100 µM
HL-60(TB) leukemia
  TGI: > 100 µM
SNB-19 CNS
  TGI: > 100 µM
NCI-H460 lung
  TGI: > 100 µM
UACC-62 melanoma
  TGI: > 100 µM
DMS 114 small cell lung
  TGI: > 100 µM
IGROV1 ovarian
  TGI: > 100 µM
RPMI-8226 leukemia
  TGI: > 100 µM
SW-620 colon
  TGI: > 100 µM
NCI-H226 lung
  TGI: > 100 µM
RXF 393 renal
  TGI: > 100 µM
OVCAR-5 ovarian
  TGI: > 100 µM
HOP-18 NSCLC
  TGI: > 100 µM
A549 NSCLC
  TGI: > 100 µM
HOP-62 NSCLC
  TGI: > 100 µM
RXF-631 renal
  TGI: > 100 µM
SK-MEL-5 melanoma
  TGI: > 100 µM
LOX IMVI melanoma
  TGI: > 100 µM
TK-10 renal
  TGI: > 100 µM
SN12C renal
  TGI: > 100 µM
CAKI-1 renal
  TGI: > 100 µM
EKVX NSCLC
  TGI: > 100 µM
SF-539 CNS
  TGI: > 100 µM
OVCAR-8 ovarian
  TGI: > 100 µM
SNB-75 CNS
  TGI: > 100 µM
MOLT-4 leukemia
  TGI: > 100 µM
SK-MEL-2 melanoma
  TGI: > 100 µM
M19-MEL melanoma
  TGI: > 100 µM
A498 renal
  TGI: > 100 µM
786-0 renal
  TGI: > 100 µM
NCI-H23 lung
  TGI: > 100 µM
LXFL 529 NSCLC
  TGI: > 100 µM
COLO 205 colon
  TGI: > 100 µM
HCC-2998 colon
  TGI: > 100 µM
